{
  "source": "patent US11059845B2",
  "about": "“Immune stimulating macrolides” (ISR IMMUNE SYSTEM REGULATION HOLDING AB (PUBL), priority 2017, dated 2021)",
  "key": {"[1]": {"test_system": "peripheral blood mononuclear cells (PBMC)", "assay": "Marker expression on PBMC by flow cytometry", "type": "cell-based, human", "details": "24 h", "method": "Human peripheral blood mononuclear cells (PBMCs) were purified from healthy donors with Ficoll-Paque density centrifugation. Cells were cultured in complete RPMI-1640 media (Invitrogen) supplemented with 25 mM HEPES, L-glutamine, Sodium pyruvate (Sigma), 10% fetal bovine serum, 100 μg/mL penicillin and 100 μg/mL streptomycin (Hyclone) for 24-72 hours in 37° C., 5% CO2 and stimulated with and increasing concentrations of compound 1 and 2. Cells were then washed in PBS and stained with monoclonal antibodies specific for cell surface markers (BD Pharmingen) and analysed with flow cytomtetry using a BD FACS Canto II flow cytometer. All samples were tested in duplicates.\n(§1) Human peripheral blood mononuclear cells (PBMCs) were purified from healthy donors with Ficoll-Paque density centrifugation. Cells were cultured in complete RPMI-1640 medium (Invitrogen) supplemented with 25 mM HEPES, L-glutamine, Sodium pyruvate (Sigma), 10% fetal bovine serum, 100 μg/mL penicillin and 100 μg/mL streptomycin (Hyclone). Cells were stimulated for 24 h (study 1-4) or 48 h to 1 week (study 5) in 37° C., 5% CO2 with increasing concentrations of compound 1 and 2 in tissue culture plates. The cells were removed from the plate, washed in PBS and analysed for expression of cell specific surface markers and MHC class I with flow cytometry using monoclonal antibodies from BD Pharmingen and a FACS Canto II flow cytometer."}, "[2]": {"test_system": "Monocytes differentiated into macrophages", "assay": "CD80 expression on monocytes differentiated into macrophages", "type": "cell-based, human", "details": "24 h", "method": "as §1"}, "[3]": {"test_system": "T cells in PBMC", "assay": "T cell proliferation with IL-2, Cell Trace Violet, flow cytometry", "type": "cell-based, human", "details": "6 days, in the presence of IL-2", "method": "FIG. 7. CD4 T cell proliferation after 6 days stimulation with compound 1, measured with proliferation dye Celltrace violet (Invitrogen) and flow cytometry. Untreated cells (UNT) or compound A were used as controls.\nStudy 6: PBMC were stimulated with compound 1 and cultured in RPMI media for 6 days in the presence of IL-2 (Miltenyi Biotechnologies) and Cell Trace Violet Dye (Invitrogen). Proliferation was measured with flow cytometry."}, "[4]": {"test_system": "Lactobacillus casei", "assay": "Minimum Inhibitory Concentration (MIC) assay", "type": "cell-based", "details": "Lacticaseibacillus casei; anaerobic, 37° C., 18 h", "method": "(§2) The bioactivity of macrolide compounds against 4 strains of common gut bacteria (Escherichia coli, Streptococcus salivarius subsp. salivarius, Lactobacillus casei and Bifidobacterium longum subsp. infantis) and common mammalian skin isolate Micrococcus luteus, was assessed using the Minimum Inhibitory Concentration (MIC) assay. Bacterial strains were purchased from DSMZ (Brunswick, Germany) except M. luteus which was obtained from NCIMB, and stored in 20% glycerol at −80° C. Stock solutions (100% DMSO) of positive controls (azithromycin and erythromycin), and of test compounds 1 and 2 were diluted in broth to working stock concentrations of 256 μg/ml (final assay testing concentration range 128 μg/ml to 0.00391 μg/ml). Stock solutions of all other compounds were diluted in broth to working stock concentrations of 128 μg/ml (final assay testing concentration range 64 μg/ml to 0.00195 μg/ml). Bacterial strains were cultivated in appropriate broth in an anaerobic chamber at 37° C., except for M. luteus which was incubated aerobically at 37° C. 18 h cultures were diluted in broth to an OD595 of 0.1 and then further diluted 1:10. In 96-well plates, in duplicate, 200 μl working stock of test compound was transferred to well 1 and serially diluted (1:2) in broth. 100 μl bacterial suspension was aliquoted into each well and mixed thoroughly. Appropriate sterility controls were included and plates were incubated in an anaerobic chamber, or aerobically (M. luteus) at 37° C. for 18 h. The MIC was determined to be the concentration of test compound in the first well with no visible growth."}, "[5]": {"test_system": "Streptococcus salivarius subsp. salivarius", "assay": "Minimum Inhibitory Concentration (MIC) assay", "type": "cell-based", "details": "anaerobic, 37° C., 18 h", "method": "as §2"}, "[6]": {"test_system": "Bifidobacterium longum subsp. infantis", "assay": "Minimum Inhibitory Concentration (MIC) assay", "type": "cell-based", "details": "anaerobic, 37° C., 18 h", "method": "as §2"}, "[7]": {"test_system": "Micrococcus luteus", "assay": "Minimum Inhibitory Concentration (MIC) assay", "type": "cell-based", "details": "aerobic, 37° C., 18 h", "method": "as §2"}, "[8]": {"test_system": "Escherichia coli", "assay": "Minimum Inhibitory Concentration (MIC) assay", "type": "cell-based", "details": "anaerobic, 37° C., 18 h", "method": "as §2"}, "[9]": {"test_system": "PBMCs from CMV infected donors", "assay": "IFN-gamma secretion from PBMCs of CMV infected donors with CMV antigen (cytometric bead assay)", "type": "cell-based, human", "details": "3 days", "from_the_text": "FIG. 9: Interferon-gamma secretion (as measured by cytometric bead assay) from PBMCs (from a CMV+ donor) grown with CMV peptides in the presence or absence of compound 1 or A for […].\nStudy 8: PBMCs from CMV infected donors cultured in the presence of CMV antigen where either untreated or exposed to compound 1 or compound 2 for 3 days."}, "[10]": {"test_system": "CD4+ T cells", "assay": "IL-1beta secretion from CD4+ T cells (cytometric bead assay)", "type": "cell-based, human", "details": "2 days", "method": "FIG. 13: IL1b secretion (as measured by cytometric bead assay) from PBMC, macrophages or CD4 T cells stimulated with indicated compound for 48 h.\nStudy 12: PBMCs, macrophages and CD4+ T cells where exposed to compounds 1 and 2 for 2 days."}, "[11]": {"test_system": "C57bl/6 mice", "assay": "MHC class I expression on CD11b+ splenocytes of mice after i.v. injection", "type": "in vivo, mouse", "details": "spleen 24 h later", "method": "FIG. 15: % MHC class I high CD11b+ cells in spleen of 3 individual C57bl/6 mice injected 24 h previously with indicated compound. MHC class I and CD11 b expression was measured by flow cytometry.\nStudy 14: Compound 1 or A was administered i.v. to C57bl/6 mice."}, "[12]": {"test_system": "E. coli, S. salivarius, L. casei, B. longum or M. luteus", "assay": "Direct antibacterial activity, summary over all strains tested", "type": "cell-based", "details": "against the bacterial strains tested (Table 1)", "method": "as §2"}, "[13]": {"test_system": "C57bl/6 mice", "assay": "CD25 expression in blood of mice after i.v. injection", "type": "in vivo, mouse", "details": "highest dose of 5 mg/kg, 24 h", "method": "FIG. 14: % CD25 high cells in blood of C57bl/6 mice injected 24 h previously with indicated dose of compound 1. CD25 expression was measured by flow cytometry.\nStudy 13: Compound 1 was administered i.v. to C57bl/6 mice at 0.165 mg/kg to 5 mg/kg. CD25+ cell abundance was increased in animals receiving the highest dose of 5 mg/kg (FIG. 14), as was body weight in the same group (not shown)."}},
  "data": [
    {"smiles": "CC[C@H]1OC(=O)[C@H](C)[C@@H](O[C@H]2C[C@@H](N(C)C)[C@H](O)[C@@H](C)O2)[C@H](C)[C@@H](O)[C@](C)(O)C[C@@H](C)CN(C)[C@H](C)[C@@H](O)[C@]1(C)O", "note": "[Compound 1]", "values": [
      {"measurement": "activation marker CD69 on B cells", "setting": "[1]; 1 μM", "result": "upregulated"},
      {"measurement": "activation marker CD69 on CD4+ T cells", "setting": "[1]; 1 μM", "result": "upregulated"},
      {"measurement": "MHC class I (HLA-ABC) on B-cells", "setting": "[1]", "result": "upregulation"},
      {"measurement": "MHC class I (HLA-ABC) on T-cells", "setting": "[1]", "result": "upregulation"},
      {"measurement": "MHC class II (HLA-DR) on monocytes", "setting": "[1]", "result": "upregulation"},
      {"measurement": "co-stimulatory molecule CD80 on monocytes", "setting": "[1]", "result": "upregulation"},
      {"measurement": "CD80 on macrophages", "setting": "[2]", "result": "upregulated"},
      {"measurement": "cytokine driven proliferation profile of T cells", "setting": "[3]", "result": "altered cytokine driven proliferation profile"},
      {"measurement": "MIC", "setting": "[4]", "result": "> 64", "unit": "µg/mL"},
      {"measurement": "MIC", "setting": "[5]", "result": "> 64", "unit": "µg/mL"},
      {"measurement": "MIC", "setting": "[6]", "result": "> 64", "unit": "µg/mL"},
      {"measurement": "MIC", "setting": "[7]", "result": "> 256", "unit": "µg/mL"},
      {"measurement": "MIC", "setting": "[8]", "result": "> 64", "unit": "µg/mL"},
      {"measurement": "IFN-gamma secretion, PBMCs with CMV antigen", "setting": "[9]", "result": "induced secretion of high levels of IFN-gamma"},
      {"measurement": "IL-1beta secretion, CD4+ T cells", "setting": "[10]", "result": "no IL-1beta was induced"},
      {"measurement": "splenocyte cells (CD11b+) with high MHC I expression", "setting": "[11]", "result": "induced an increase"},
      {"measurement": "antibacterial activity", "setting": "[12]", "result": "no antibacterial activity"},
      {"measurement": "CD25+ cell abundance", "setting": "[13]", "result": "increased"}
    ]}
  ]
}
